# Data as given in paper PMC10609148 (Molecules, 2023).
# “Also recorded” adds a separate entry of the source.
# Legend:
# Aβ(1–42)/CaM complex = target: T1, Aβ(1–42)/CaM complex (Homo sapiens, UniProt P05067); assay: Antagonism of Aβ(1–42) HiLyte-Fluor555/CaM interaction (fluorescence); assay type: biochemical, Bovine brain CaM
# T1 construct: purchased Merck-Sigma-Aldrich (CaM); AnaSpec (labelled Aβ peptide); host or cells: bovine brain
# Description: Human Aβ(1–42)-HiLyte^TM-Fluor555 was purchased from AnaSpec (Freemont, CA, USA). […] His6 was purchased from Quimigen (Madrid, Spain). Bovine brain CaM and Thrombin Clean Cleavage^TM kit were purchased from Merck-Sigma-Aldrich (Madrid, Spain).
# Fluorescence measurements were performed using a Fluoromax+ fluorescence Spectrophotometer (Horiba Jobin Yvon IBH Ltd., Glasgow, UK) in quartz cuvettes of 1cm light pathlength with a total volume of 2.5 mL at room temperature (24–25 °C), with excitation and emission slits of 5 nm.
# The measurements of the kinetics of fluorescence have been performed in buffer 50 mM N-[2-hydroxyethyl] piperazine-N′-[2-ethanesulfonic acid], 100 mM KCl and 50 µM CaCl2 (pH 7.05).
# CaM and calbindin-D28k were added from concentrated stock solutions freshly prepared in the assay buffer used in the fluorescence measurements, such that the total added volume was always lower than 10 μL.
# [1] = target: Aβ(1–42)/calbindin-D28k complex (Homo sapiens, UniProt P05067); assay: Antagonism of Aβ(1–42) HiLyte-Fluor555/calbindin-D28k interaction (fluorescence); assay type: biochemical, human recombinant calbindin-D28k
# Description: The purified protein were aliquoted and conserved in 30% glycerol at −80 °C until use.
# [2] = cited from earlier work
# From the text: Aβ peptides bind to ganglioside-clustered raft-like membrane microdomains, which foster the formation of Aβ oligomers and fibrils in a cholesterol-dependent manner. […] Moreover, plasma membrane lipid rafts play an active role in extracellular Aβ uptake and internalization in neurons. After the uptake of extracellular Aβ(1–42) into neurons, the intracellular ...
# [3] = system: human recombinant Cb5R with a His6-tag; assay: Titration of FAD fluorescence of His6-tagged Cb5R; assay type: binding
# Description: (§1) The assay buffer was 20 mM phosphate/0.1 mM diethylenetriaminepentaacetic acid (pH 7).
# [4] = system: human recombinant Cb5R with a His6-tag; assay: Inhibition of NADH-dependent Cb5 reductase activity of His6-tagged Cb5R; assay type: biochemical; details: pH 7, 5 μM Cb5, 0.25 mM NADH
# Description: The reaction was started by the addition of 0.25 mM NADH after 10 min preincubation of the Cb5R in the assay medium, and initial rates were measured during periods of time ranging between 5 and 10 min, with a less than 10% drop in the Cb5 concentration in the assay cuvette. The Cb5 reductase activity was calculated from the change of absorbance at 550 nm using a differential extinction coefficient between reduced and oxidized Cb5 of 16.5 mM^−1·cm^−1, as in previous works [67, 69].
# [5] = 177 μM in phosphate-buffered saline; Tricine-SDS-PAGE; cited from earlier work
# [6] = system: human recombinant Cb5R with a His6-tag; assay: FRET between FAD of His6-tagged Cb5R and Aβ(1–42) HiLyte-Fluor555; assay type: binding; details: calculated for saturation by Aβ(1–42) HiLyte-Fluor555
# Description: as §1
# Sequence of Aβ(1–42)/calbindin-D28k complex (P05067 672-713 limits assumed, one chain of several): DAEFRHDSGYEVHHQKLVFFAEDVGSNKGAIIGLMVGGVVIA
# T1 sequence (P05067 672-713 limits assumed, one chain of several): as above
compound,measurement,setting,value
"N[C@@H](Cc1c[nH]cn1)C(=O)N[C@@H](Cc1c[nH]cn1)C(=O)N[C@@H](Cc1c[nH]cn1)C(=O)N[C@@H](Cc1c[nH]cn1)C(=O)N[C@@H](Cc1c[nH]cn1)C(=O)N[C@@H](Cc1c[nH]cn1)C(=O)O [His6, hexa-histidine]",IC50,Aβ(1–42)/CaM complex,≤ 1 µM
same,IC50,[1],≤ 1 µM
Aβ(1–42): prevalent Aβ peptide found in the amyloid plaques of AD patients; supplied by StabVida and GenicBio,critical concentration that induces fibrillization,[2],submicromolar range
same,fitted maximum of FAD fluorescence increase (ΔF/F0),"[3]; Figure 5 fit, 1:1 binding, triplicate",0.5227
same,effect of Cb5 on the titration of FAD fluorescence,[3]; absence vs presence of 5 μM Cb5,the same in the absence and presence of 5 μM of Cb5; also recorded: not a significant difference
same,inhibition of Cb5 reductase activity (in words),[4],potent inhibition of this activity by nanomolar Aβ(1–42) concentrations
same,fraction of monomers and higher molecular species,[5],almost undetectable
Aβ(1–42) HiLyte^TM-Fluor555: Human Aβ(1–42) with HiLyte-Fluor555 dye covalently bound to ASP1; AnaSpec,quenching of donor FAD fluorescence at saturation,[6],70 ± 7%
